Patent US12569437B2, “Disease-site-specific liposomal formulation” (Osaka University, priority 2017, dated 2026)

Tested on: rat monocrotaline (MCT)-induced severe heart failure (pulmonary hypertension) model
Test: Survival rate in rat monocrotaline-induced pulmonary hypertension model
Type: in vivo
Settings: 42 days after MCT; oral 50 mg/kg × twice/day from day 7
Excerpt: The produced Formulation 21 (ONO-1301Lipo formulation) as a test substance was intermittently administered intravenously once weekly to a rat monocrotaline (MCT)-induced severe heart failure (pulmonary hypertension) model from day 7 of the MCT administration, and the survival rate was compared with a group in which compound (A) (ONO-1301) was repeatedly orally administered; a group in which compound (A) was intermittently administered intravenously once weekly; and, as a positive control, a group in which an ET-1 antagonist (bosentan) was orally administered. In the control group, physiological saline (vehicle) was administered once weekly by intravenous administration.
For animals, Slc: Wistar male rats, 5 weeks old at the start of the test, and 66.4 to 90.8 g at arrival (Japan SLC, Inc.) were used. Monocrotaline (hereinafter referred to as “MCT”), lot No.: SLBG1999V (Sigma-Aldrich Corporation), was administered once subcutaneously at the back of the rats at a dose of 60 mg/kg. Six days after the MCT administration, the animals were divided into groups according to the weight stratification assignment method (Table 19).

COc1ccccc1Oc1c(NS(=O)(=O)c2ccc(C(C)(C)C)cc2)nc(-c2ncccn2)nc1OCCO [Bosentan]
Survival rate (%): 30%
